Results published in US20260000656A1, “ANTIFUNGAL AGENTS WITH ENHANCED ACTIVITY IN ACIDIC PH” (Scynexis, Inc., priority 2017, published 2026).
≈ marks a conversion by molar mass, not a printed value. Read-outs that look alike come from different tables or passages of the source.

Assays:
C. glabrata isolates = assay: Broth microdilution susceptibility (CLSI M27-A3) at different medium pH; type: cell-based, Candida glabrata; conditions: Nakaseomyces glabratus, 24 h; for MIC50: read-out: MIC50; for MIC90: read-out: MIC90
Experimental: (§1) Ten strains each of C. glabrata and C. albicans vaginal isolates were tested. The strains were obtained from recent clinical trial patients with vulvovaginal candidiasis (VVC) prior to treatment. Candida strains were obtained from the Mycology Reference Library (MRL) at Case Western Reserve University School of Medicine, Ohio, United States.
(§2) Susceptibility testing was performed using a broth microdilution method, according to CLSI M27-A3 guidelines (CLSI. 2008. Reference Method for Broth Dilution Antifungal Susceptibility Testing of Yeasts; Approved Standard—Third Edition. Clinical and Laboratory Standards Institute, CLSI document M27-A3). Antifungals and concentrations tested were SCY-078 and micafungin (both at concentrations within the range of 0.015 to 8 μg/ml) and fluconazole (at concentrations within the range of 0.125 to 64 μg/ml). A 0.1-ml C. albicans and C. glabrata inoculum of 0.5-2.5×10^3 blastospores/ml in RPMI 1640 medium was added to each microdilution well. ATCC strains of Candida parapsilosis and Candida krusei QC isolates were also included concurrently to ensure quality control. Antifungal susceptibility testing was carried out for each isolate in RPMI 1640 at pH 7 (to mimic RPMI medium used in testing the susceptibility of yeast by the CLSI M-27A3 document), pH 5.7, and pH 4.5 (to mimic the pH of the vaginal cavity) by adjusting the pH of the media using NaOH or HCl. […] Agents Chemother., 43: 1383-1386 (1999).
(§3) […] SCY-078 powder was manufactured by Avista, Laboratories, NC. Micafungin and fluconazole were sourced from LGM Pharma.

C. albicans isolates = assay: as above; type: cell-based, Candida albicans; conditions: 50% inhibition, pH 4.5, 24 h, 10 vaginal isolates
Experimental: as §1, §2, §3

[1] = pH 7, 50% inhibition, pH 7.0, 24 h, 10 vaginal isolates
[2] = pH 7, 100% inhibition, pH 7.0, 24 hours, 10 isolates

MIC (C. glabrata isolates; pH 5.72, C. glabrata MRL 32626, pH 5.72, 24 hours, read-out: MIC (100% inhibition)): 1 µg/mL (≈ 1.37 µM)
MIC (C. glabrata isolates; pH 5.72, C. glabrata MRL 32993, pH 5.72, 24 hours, read-out: MIC (50% inhibition)): 0.5 µg/mL (≈ 0.685 µM)
MIC (C. glabrata isolates; pH 5.72, C. glabrata MRL 32993, pH 5.72, 24 hours, read-out: MIC (100% inhibition)): 1 µg/mL (≈ 1.37 µM)
MIC (C. glabrata isolates; pH 5.72, C. glabrata MRL 33204, pH 5.72, 24 hours, read-out: MIC (50% inhibition)): 0.5 µg/mL (≈ 0.685 µM)
MIC (C. glabrata isolates; pH 5.72, C. glabrata MRL 33204, pH 5.72, 24 hours, read-out: MIC (100% inhibition)): 1 µg/mL (≈ 1.37 µM)
MIC (C. glabrata isolates; pH 5.72, C. glabrata MRL 33960, pH 5.72, 24 hours, read-out: MIC (50% inhibition)): 0.5 µg/mL (≈ 0.685 µM)
MIC (C. glabrata isolates; pH 5.72, C. glabrata MRL 33960, pH 5.72, 24 hours, read-out: MIC (100% inhibition)): 1 µg/mL (≈ 1.37 µM)
MIC (C. glabrata isolates; pH 5.72, C. glabrata MRL 33961, pH 5.72, 24 hours, read-out: MIC (50% inhibition)): 0.5 µg/mL (≈ 0.685 µM)
MIC (C. glabrata isolates; pH 5.72, C. glabrata MRL 33961, pH 5.72, 24 hours, read-out: MIC (100% inhibition)): 1 µg/mL (≈ 1.37 µM)
MIC (C. glabrata isolates; pH 5.72, C. glabrata MRL 34339, pH 5.72, 24 hours, read-out: MIC (50% inhibition)): 0.5 µg/mL (≈ 0.685 µM)
MIC (C. glabrata isolates; pH 5.72, C. glabrata MRL 34339, pH 5.72, 24 hours, read-out: MIC (100% inhibition)): 1 µg/mL (≈ 1.37 µM)
MIC (C. glabrata isolates; pH 5.72, C. glabrata MRL 34407, pH 5.72, 24 hours, read-out: MIC (50% inhibition)): 0.5 µg/mL (≈ 0.685 µM)
MIC (C. glabrata isolates; pH 5.72, C. glabrata MRL 34407, pH 5.72, 24 hours, read-out: MIC (100% inhibition)): 1 µg/mL (≈ 1.37 µM)
MIC (C. glabrata isolates; pH 5.72, C. glabrata MRL 34576, pH 5.72, 24 hours, read-out: MIC (50% inhibition)): 0.5 µg/mL (≈ 0.685 µM)
MIC (C. glabrata isolates; pH 5.72, C. glabrata MRL 34576, pH 5.72, 24 hours, read-out: MIC (100% inhibition)): 1 µg/mL (≈ 1.37 µM)
MIC50 (C. glabrata isolates; [1]): 1 µg/mL (≈ 1.37 µM)
MIC90 (C. glabrata isolates; [1]): 1 µg/mL (≈ 1.37 µM)
MIC50 (C. glabrata isolates; [2]): 1 µg/mL (≈ 1.37 µM)
MIC90 (C. glabrata isolates; [2]): 2 µg/mL (≈ 2.74 µM)
MIC (C. glabrata isolates; pH 7, C. glabrata MRL 32075, pH 7.0, 24 hours, read-out: MIC (50% inhibition)): 0.5 µg/mL (≈ 0.685 µM)
MIC (C. glabrata isolates; pH 7, C. glabrata MRL 32075, pH 7.0, 24 hours, read-out: MIC (100% inhibition)): 1 µg/mL (≈ 1.37 µM)
MIC (C. glabrata isolates; pH 7, C. glabrata MRL 32232, pH 7.0, 24 hours, read-out: MIC (50% inhibition)): 1 µg/mL (≈ 1.37 µM)
MIC (C. glabrata isolates; pH 7, C. glabrata MRL 32232, pH 7.0, 24 hours, read-out: MIC (100% inhibition)): 1 µg/mL (≈ 1.37 µM)
MIC (C. glabrata isolates; pH 7, C. glabrata MRL 32626, pH 7.0, 24 hours, read-out: MIC (50% inhibition)): 0.5 µg/mL (≈ 0.685 µM)
MIC (C. glabrata isolates; pH 7, C. glabrata MRL 32626, pH 7.0, 24 hours, read-out: MIC (100% inhibition)): 1 µg/mL (≈ 1.37 µM)
MIC (C. glabrata isolates; pH 7, C. glabrata MRL 32993, pH 7.0, 24 hours, read-out: MIC (50% inhibition)): 0.5 µg/mL (≈ 0.685 µM)
MIC (C. glabrata isolates; pH 7, C. glabrata MRL 32993, pH 7.0, 24 hours, read-out: MIC (100% inhibition)): 1 µg/mL (≈ 1.37 µM)
MIC (C. glabrata isolates; pH 7, C. glabrata MRL 33204, pH 7.0, 24 hours, read-out: MIC (50% inhibition)): 1 µg/mL (≈ 1.37 µM)
MIC (C. glabrata isolates; pH 7, C. glabrata MRL 33204, pH 7.0, 24 hours, read-out: MIC (100% inhibition)): 1 µg/mL (≈ 1.37 µM)
MIC (C. glabrata isolates; pH 7, C. glabrata MRL 33960, pH 7.0, 24 hours, read-out: MIC (50% inhibition)): 0.5 µg/mL (≈ 0.685 µM)
MIC (C. glabrata isolates; pH 7, C. glabrata MRL 33960, pH 7.0, 24 hours, read-out: MIC (100% inhibition)): 1 µg/mL (≈ 1.37 µM)
MIC (C. glabrata isolates; pH 7, C. glabrata MRL 33961, pH 7.0, 24 hours, read-out: MIC (50% inhibition)): 1 µg/mL (≈ 1.37 µM)
MIC (C. glabrata isolates; pH 7, C. glabrata MRL 33961, pH 7.0, 24 hours, read-out: MIC (100% inhibition)): 1 µg/mL (≈ 1.37 µM)
MIC (C. glabrata isolates; pH 7, C. glabrata MRL 34339, pH 7.0, 24 hours, read-out: MIC (50% inhibition)): 1 µg/mL (≈ 1.37 µM)
MIC (C. glabrata isolates; pH 7, C. glabrata MRL 34339, pH 7.0, 24 hours, read-out: MIC (100% inhibition)): 1 µg/mL (≈ 1.37 µM)
MIC (C. glabrata isolates; pH 7, C. glabrata MRL 34407, pH 7.0, 24 hours, read-out: MIC (50% inhibition)): 1 µg/mL (≈ 1.37 µM)
MIC (C. glabrata isolates; pH 7, C. glabrata MRL 34407, pH 7.0, 24 hours, read-out: MIC (100% inhibition)): 2 µg/mL (≈ 2.74 µM)
MIC (C. glabrata isolates; pH 7, C. glabrata MRL 34576, pH 7.0, 24 hours, read-out: MIC (50% inhibition)): 1 µg/mL (≈ 1.37 µM)
MIC (C. glabrata isolates; pH 7, C. glabrata MRL 34576, pH 7.0, 24 hours, read-out: MIC (100% inhibition)): 2 µg/mL (≈ 2.74 µM)
MIC50 (C. albicans isolates): < 0.016 µg/mL
Structure (SMILES): CC(C)[C@@H](C)[C@@]1(C)CC[C@]2(C)[C@H]3CC[C@@H]4[C@@]5(COC[C@]4(C)[C@@H](OC[C@](C)(N)C(C)(C)C)[C@H](n4ncnc4-c4ccncc4)C5)C3=CC[C@@]2(C)[C@@H]1C(=O)O [SCY-078]
